From patent publication US20040116293A1, “Enhanced herbicide composition” (priority 2002, published 2004)

Key:
Xanthi-nc tobacco [1] = test: Potentiation rating of Aatrex Nine-O (atrazine) herbicidal activity on Xanthi-nc tobacco relative to equimolar salicylic acid; type: in vivo, Nicotiana tabacum (tobacco); parameters: Potentiation Rating: key: 0 = no potentiation; 1 = potentiation less than equimolar SA; 2 = potentiation statistically equal to equimolar SA; 3 = potentiation statistically greater than equimolar SA; settings: for Potentiation of the herbicidal activity of atrazine compared with salicylic acid (in words): tobacco
Text: (§1) In all examples, deionized ultra-pure water was used in preparing solutions. Spray solutions were used as soon as possible after mixing.
(§2) In all herbicide applications, plants were sprayed with a sufficient volume to insure good coverage, to the point of runoff of the spray solution. […] For all treatments containing both an herbicide and a salicylate or SAR inducer, these materials were mixed and applied in a single spray solution (commonly known as a tank mix). After spraying, plants were moved to the greenhouse and arranged in randomized complete blocks. Plants were evaluated for herbicidal effects (phytotoxicity) after spraying by assessing damage according to percent leaf area affected. All the data were subject to an analysis of variance, and the mean separations were determined with Duncan's multiple range test at α=0.05.

Xanthi-nc tobacco [2] = test: Herbicidal activity (phytotoxicity, percent leaf area affected) of foliar sprays on Xanthi-nc tobacco; type: in vivo, Nicotiana tabacum (tobacco); settings: for Phytotoxicity at 4 days: percent leaf area affected: alone or + NaSA 800 ppm
Text: as §1, §2

[3] = salicylates, picolinates and benzoates at 2 mM with Aatrex Nine-O (atrazine)
[4] = salicylic acid or SAR inducers with Aatrex Nine-O (atrazine), compared with equimolar SA
[5] = acibenzolar-S-methyl 935 ppm, alone or + atrazine (Aatrex Nine-O) 100 ppm
[6] = atrazine (Aatrex Nine-O) 100 ppm, NaSA 800 ppm, acibenzolar-S-methyl 187 ppm, alone or tank-mixed as labelled

O=C(O)c1cc(F)ccc1O [5-Fluorosalicylic acid]
Potentiation Rating (Xanthi-nc tobacco [1]; [3]): 3
Potentiation of the herbicidal activity of atrazine compared with salicylic acid (in words) (Xanthi-nc tobacco [1]): greater potentiation than salicylic acid

Cc1ccc(C(=O)O)c(O)c1 [4-Methylsalicylic acid]
Potentiation Rating (Xanthi-nc tobacco [1]; [3]): 0
Potentiation of the herbicidal activity of atrazine compared with salicylic acid (in words) (Xanthi-nc tobacco [1]): no potentiation

O=C(O)c1cc(Cl)nc(Cl)c1 [2,6-Dichloroisonicotinic acid]
Potentiation Rating (Xanthi-nc tobacco [1]; [4]): 3
Potentiation of the herbicidal activity of atrazine compared with salicylic acid (in words) (Xanthi-nc tobacco [1]): greater potentiation than equimolar salicylic acid

COc1cccc(C(=O)O)c1O [3-Methoxysalicylic acid]
Potentiation Rating (Xanthi-nc tobacco [1]; [3]): 2
Potentiation of the herbicidal activity of atrazine compared with salicylic acid (in words) (Xanthi-nc tobacco [1]): as active as salicylic acid

O=C(O)c1cc([N+](=O)[O-])ccc1O [5-Nitrosalicylic acid]
Potentiation Rating (Xanthi-nc tobacco [1]; [3]): 2
Potentiation of the herbicidal activity of atrazine compared with salicylic acid (in words) (Xanthi-nc tobacco [1]): as active as salicylic acid

O=C(O)c1ccccc1O [Salicylic acid, salicylic acid]
Potentiation Rating (Xanthi-nc tobacco [1]; [3]): 2
Potentiation Rating (Xanthi-nc tobacco [1]; [4]): 2

Cc1ccc(O)c(C(=O)O)c1 [5-Methylsalicylic acid]
Potentiation Rating (Xanthi-nc tobacco [1]; [3]): 0

O=C(O)c1cc(Cl)ccc1O [5-Chlorosalicylic acid]
Potentiation Rating (Xanthi-nc tobacco [1]; [4]): 3
Potentiation of the herbicidal activity of atrazine compared with salicylic acid (in words) (Xanthi-nc tobacco [1]): greater potentiation than equimolar salicylic acid

O=C(O)c1cccc([N+](=O)[O-])c1O [3-Nitrosalicylic acid]
Potentiation Rating (Xanthi-nc tobacco [1]; [3]): 2
Potentiation of the herbicidal activity of atrazine compared with salicylic acid (in words) (Xanthi-nc tobacco [1]): as active as salicylic acid

O=C(O)c1cc(Br)ccc1O [5-Bromosalicylic acid]
Potentiation Rating (Xanthi-nc tobacco [1]; [3]): 2
Potentiation of the herbicidal activity of atrazine compared with salicylic acid (in words) (Xanthi-nc tobacco [1]): as active as salicylic acid

O=C(O)c1cc(F)cc(F)c1O [3,5-Difluorosalicylic acid]
Potentiation Rating (Xanthi-nc tobacco [1]; [3]): 3
Potentiation of the herbicidal activity of atrazine compared with salicylic acid (in words) (Xanthi-nc tobacco [1]): greater potentiation than salicylic acid

Cc1cccc(O)c1C(=O)O [6-Methylsalicylic acid]
Potentiation Rating (Xanthi-nc tobacco [1]; [3]): 0
Potentiation of the herbicidal activity of atrazine compared with salicylic acid (in words) (Xanthi-nc tobacco [1]): no potentiation

O=C(O)c1ccc(F)cc1O [4-Fluorosalicylic acid]
Potentiation Rating (Xanthi-nc tobacco [1]; [3]): 3
Potentiation of the herbicidal activity of atrazine compared with salicylic acid (in words) (Xanthi-nc tobacco [1]): greater potentiation than salicylic acid

O=C(O)c1cccc(Cl)c1O [3-Chlorosalicylic acid]
Potentiation Rating (Xanthi-nc tobacco [1]; [3]): 3
Potentiation of the herbicidal activity of atrazine compared with salicylic acid (in words) (Xanthi-nc tobacco [1]): greater potentiation than salicylic acid

CSC(=O)c1cccc2nnsc12 [Acibenzolar-S-methyl, 1,2,3-benzothiadiazole-7-carbothioic acid S-methyl ester]
Potentiation Rating (Xanthi-nc tobacco [1]; [4]): 3
Potentiation of the herbicidal activity of atrazine compared with salicylic acid (in words) (Xanthi-nc tobacco [1]): greater potentiation than equimolar salicylic acid
Phytotoxicity at 2 days: percent leaf area affected (Xanthi-nc tobacco [2]; [5]): 0 A percent
Phytotoxicity at 2 days: percent leaf area affected (Xanthi-nc tobacco [2]; [6]): 0 A percent
Phytotoxicity at 3 days: percent leaf area affected (Xanthi-nc tobacco [2]; [5]): 0 A percent
Phytotoxicity at 3 days: percent leaf area affected (Xanthi-nc tobacco [2]; [6]): 0 A percent
Phytotoxicity at 7 days: percent leaf area affected (Xanthi-nc tobacco [2]; [5]): 0.6 A percent
Phytotoxicity at 7 days: percent leaf area affected (Xanthi-nc tobacco [2]; [6]): 0 A percent
Effect of Actigard on atrazine activity (in words) (Xanthi-nc tobacco [2]; tobacco): dose-dependent acceleration of atrazine activity

O=C(O)c1cc(Br)cc(Br)c1O [3,5-Dibromosalicylic acid]
Potentiation Rating (Xanthi-nc tobacco [1]; [3]): 2
Potentiation of the herbicidal activity of atrazine compared with salicylic acid (in words) (Xanthi-nc tobacco [1]): as active as salicylic acid

O=C(O)c1cccc(F)c1O [3-Fluorosalicylic acid]
Potentiation Rating (Xanthi-nc tobacco [1]; [3]): 3
Potentiation of the herbicidal activity of atrazine compared with salicylic acid (in words) (Xanthi-nc tobacco [1]): greater potentiation than salicylic acid

CC(C)N1C(=O)c2ccccc2NS1(=O)=O [Bentazon, 3-(1-methylethyl)-1H-2,1,3-benzothiadiazin-4(3H)-one 2,2-dioxide]
Phytotoxicity at 4 days: percent leaf area affected (Xanthi-nc tobacco [2]; bentazon (Basagran) 100 ppm): 10 A percent
Phytotoxicity at 4 days: percent leaf area affected (Xanthi-nc tobacco [2]; bentazon (Basagran) 250 ppm): 32.5 B percent
Phytotoxicity at 4 days: percent leaf area affected (Xanthi-nc tobacco [2]; bentazon (Basagran) 500 ppm): 72.5 CD percent

O=C(O)c1ccc(Cl)cc1O [4-Chlorosalicylic acid]
Potentiation Rating (Xanthi-nc tobacco [1]; [4]): 3
Potentiation of the herbicidal activity of atrazine compared with salicylic acid (in words) (Xanthi-nc tobacco [1]): greater potentiation than equimolar salicylic acid

O=C(O)c1c(O)cccc1F [6-Fluorosalicylic acid]
Potentiation Rating (Xanthi-nc tobacco [1]; [3]): 2
Potentiation of the herbicidal activity of atrazine compared with salicylic acid (in words) (Xanthi-nc tobacco [1]): as active as salicylic acid

CCOC(=O)C(C)OC(=O)c1cc(Oc2ccc(C(F)(F)F)cc2Cl)ccc1[N+](=O)[O-] (centres unmarked) [lactofen]
Potentiation of the herbicidal activity of atrazine compared with salicylic acid (in words) (Xanthi-nc tobacco [1]): greater potentiation than equimolar salicylic acid

O=C(O)c1ncccc1O [3-Hydroxypicolinic acid]
Potentiation Rating (Xanthi-nc tobacco [1]; [3]): 3

O=C(O)c1cc(Cl)cc(Cl)c1O [3,5-Dichlorosalicylic acid]
Potentiation Rating (Xanthi-nc tobacco [1]; [4]): 3
Potentiation of the herbicidal activity of atrazine compared with salicylic acid (in words) (Xanthi-nc tobacco [1]): greater potentiation than equimolar salicylic acid

Cc1cccc(C(=O)O)c1O [3-Methylsalicylic acid]
Potentiation Rating (Xanthi-nc tobacco [1]; [3]): 0
Potentiation of the herbicidal activity of atrazine compared with salicylic acid (in words) (Xanthi-nc tobacco [1]): no potentiation

O=C([O-])c1ccccc1.[Na+] [Sodium benzoate]
Potentiation Rating (Xanthi-nc tobacco [1]; [3]): 0
Potentiation of the herbicidal activity of atrazine compared with salicylic acid (in words) (Xanthi-nc tobacco [1]): no potentiation

C=CCOC1=NS(=O)(=O)c2ccccc21 [Probenazole]
Potentiation of the herbicidal activity of atrazine compared with salicylic acid (in words) (Xanthi-nc tobacco [1]): greater potentiation than equimolar salicylic acid
